# Earlier results as cited in patent publication US10376519B2, “Tricyclic lactams for use in HSPC-sparing treatments for Rb-positive abnormal cellular proliferation” (G1 Therapeutics, Inc., priority 2014, dated 2019).
# What was measured:
# [1] = Grade 3/4 neutropenia and leukopenia, clinical trial studies
# [2] = in vivo
compound,measurement,setting,value
"CC(=O)c1c(C)c2cnc(Nc3ccc(N4CCNCC4)cn3)nc2n(C2CCCC2)c1=O [palbociclib, 6-acetyl-8-cyclopentyl-5-methyl-2-(5-piperazin-1-yl-pyridin-2-ylammino)-8H-pyrido-[2,3-d]-pyrimidin-7-one]",patients requiring a dose interruption,[1],71%
same,patients requiring a dose reduction,[1],35%
same,T1/2,[2],roughly 26.7 hours
